The results in this text go back to ChEMBL document CHEMBL3045715, “Fungicidal Properties of N-(3, 5-Dichlorophenyl)-N-methoxyformamidine and Computer Studies of Its Active Structures” (J Pestic Sci, 1991).

The subject of test [1] is Botrytis cinerea. The test is described as follows: Antifungal activity against Botryotinia fuckeliana Bc-44 in kidney bean leaves assessed as reduction of disease diameter lesions at 200 ppm after 4 days. Type of test: functional. Also noted: scale not given: the % may be the effect or the level left.
Test [2] deals with Botrytis cinerea. The test is described as follows: Antifungal activity against Botryotinia fuckeliana Bc-44 in kidney bean leaves assessed as reduction of disease diameter lesions at 50 ppm after 4 days. Type of test: functional. Also noted: scale not given: the % may be the effect or the level left.
In test [3] the test system is Botrytis cinerea. The test can be described thus: Antifungal activity against benzimidazole-sensitive Botryotinia fuckeliana Bc-9 assessed as inhibition of radial mycelial growth after 48 hr. It counts as functional, organism-based.
Test [4] has as its system Botrytis cinerea. The test can be described thus: Antifungal activity against benzimidazole-resistant Botryotinia fuckeliana Bc-44 assessed as inhibition of radial mycelial growth after 48 hr. Type of test: functional, organism-based.
Test [5] has as its system Botrytis cinerea. The test can be described thus: Resistant ratio of EC50 for benzimidazole-sensitive Botryotinia fuckeliana Bc-9 to EC50 for benzimidazole-resistant Botryotinia fuckeliana Bc-44. It counts as functional.
The test system of test [6] is Botrytis cinerea. The test is described as follows: Antifungal activity against benzimidazole-sensitive Botryotinia fuckeliana Bc-9 assessed as inhibition of hyphae extension at 15 ug/ml after 48 hr. Type of test: functional, organism-based.
In test [7] the test system is Botrytis cinerea. The test can be described thus: Antifungal activity against benzimidazole-resistant Botryotinia fuckeliana Bc-44 assessed as distorted and swollen germ tube at 15 ug/ml after 48 hr. Type of test: functional, organism-based.
Test [8] has as its system Botrytis cinerea. The test is described as follows: Antifungal activity against benzimidazole-resistant Botryotinia fuckeliana Bc-44 assessed as inhibition of hyphae extension at 15 ug/ml after 48 hr. Type of test: functional, organism-based.
The subject of test [9] is Botrytis cinerea. The test is described as follows: Antifungal activity against benzimidazole-resistant Botryotinia fuckeliana Bc-44 assessed as inhibition of conidia germination at 15 ug/ml after 48 hr. Type of test: functional, organism-based.
The subject of test [10] is Botrytis cinerea. The test is described as follows: Antifungal activity against benzimidazole-sensitive Botryotinia fuckeliana Bc-9 assessed as distorted and swollen germ tube at 15 ug/ml after 48 hr. Type of test: functional, organism-based.
Test [11] deals with Botrytis cinerea. The test can be described thus: Antifungal activity against benzimidazole-sensitive Botryotinia fuckeliana Bc-9 assessed as distorted and swollen germ tube at 1 ug/ml after 48 hr. Type of test: functional, organism-based.
The test system of test [12] is Botrytis cinerea. The test is described as follows: Antifungal activity against benzimidazole-sensitive Botryotinia fuckeliana Bc-9 assessed as inhibition of hyphae extension at 1 ug/ml after 48 hr. Type of test: functional, organism-based.

Structures are written as SMILES. Activity calls are given as the source filed them. The rule behind the calls is not given here. Some results are limits rather than exact numbers.

Take `CCO/N=C(\C)Nc1cc(Cl)cc(Cl)c1`: the Activity in the test on Botrytis cinerea [1] amounted to 100%; in the test on Botrytis cinerea [2], 50%.
On to `CCONC(=S)Nc1cc(Cl)cc(Cl)c1`, for which the Activity with Botrytis cinerea [1] and in the test on Botrytis cinerea [2] was <25% each time.
As for `CCO/N=C/Nc1cc(Cl)cc(Cl)c1`, the Activity in the test on Botrytis cinerea [1] came to 100%; in the test with Botrytis cinerea [2] it was 90%.
As for `Clc1cc(Cl)cc(Nc2nccs2)c1`, the Activity is given as 26% with Botrytis cinerea [1] and <25% with Botrytis cinerea [2].
Take `CNC(=O)Oc1nc2ccccc2[nH]1`: the EC50 in the test with Botrytis cinerea [3] is given as 0.05 ppm; with Botrytis cinerea [4], > 100 ppm. Besides, the “Ratio EC50” value in the test on Botrytis cinerea [5] is listed as 0.0005.
Regarding `CCONC(=O)Nc1cc(Cl)cc(Cl)c1`, the Activity in the test on Botrytis cinerea [1] and in the test with Botrytis cinerea [2] was <25% each time.
For `CN(C#N)c1cc(Cl)cc(Cl)c1`, the Activity worked out at 90% in the test with Botrytis cinerea [1] and 26% in the test with Botrytis cinerea [2].
Taken in the same sequence, the figures for `CCO/N=C(/Nc1cc(Cl)cc(Cl)c1)SC` were 26% and <25%.
As for `CO/N=C/Nc1cc(Cl)cc(Cl)c1`, the inhibition entry with Botrytis cinerea [6] and with Botrytis cinerea [10] was “inactive” each time. In addition, the Activity in the test with Botrytis cinerea [1] is given as 100%; in the test on Botrytis cinerea [2], 90%. In addition, the EC50 with Botrytis cinerea [3] was determined as 30 ppm; in the test with Botrytis cinerea [4], 3 ppm. Further, the inhibition entry with Botrytis cinerea [7] and in the test with Botrytis cinerea [8] was “Active” throughout. Further, the “Ratio EC50” value in the test on Botrytis cinerea [5] was determined as 10. Moreover, in the test with Botrytis cinerea [9], the result was inactive.
For `COC(=O)Nc1cc(Cl)cc(Cl)c1`, the Activity with Botrytis cinerea [1] is reported as 100%; with Botrytis cinerea [2] it was 90%. In addition, the EC50 with Botrytis cinerea [3] came to 5 ppm; in the test on Botrytis cinerea [4] it was 0.2 ppm. Besides, the inhibition result in the test on Botrytis cinerea [11] and in the test on Botrytis cinerea [12] was “inactive” throughout. Further, the “Ratio EC50” value with Botrytis cinerea [5] came out at 25.
Consider `N#CNc1cc(Cl)cc(Cl)c1`, for which the Activity in the test with Botrytis cinerea [1] and in the test with Botrytis cinerea [2] was <25% in each case.
